Results on 2 compounds are retold here after patent publication US12291511B2, “Polymerase inhibitors and related compositions and methods” (Promega Corporation, priority 2018, dated 2025).

Broadly, the IC50 is the concentration that gives 50% inhibition.

The structures appear in SMILES notation.

Common to all, as to format: biochemical
For assay [1], the target named is T1, Taq (Thermus aquaticus, UniProt P19821). The assay can be described thus: Hot-start PCR of CCR5 gene (500 bp amplicon) with human genomic DNA as template. Particulars: CCR5 target; for 500 bp yield: compared with no hot-start (GoTaq® DNA Polymerase). The text has this: Testing of Human Genomic Templates. FIG. 11 includes a representative image of an agarose gel used to evaluate the CCR5 gene amplification products of various hot-start PCR reactions performed with and without two different polymerase inhibitors (compound #7124 and compound #7261) and using human genomic DNA as a template. The target amplicon is 500 bp, and without the use of hot-start, there is a significant amount of primer dimer. With compound #7124 and compound #7261, the 500 bp yield increased, but primer dimer amounts remained (compare to GoTaq® DNA Polymerase treatment for no hot-start and GoTaq® Hot-Start DNA Polymerase with an antibody-mediated hot-start). Reaction components are provided in Table 2 below; the following cycling methods were used: [(22° C. for 90 min, 94° C. for 2 min) 1 cycle, (92° C. for 30 sec, 68° C. for 2 min) 45 cycles, (72° C. for 5 min) 1 cycle, 4° C. soak].

For assay [2], the target named is T2, GoTaq® DNA Polymerase (Taq DNA polymerase) (Thermus aquaticus, UniProt P19821).
T2 construct: purchased
The assay can be described thus: Hot-start PCR of 1.5 kb fragment of the Corynephage omega gene from plasmid DNA, after 22° C. pre-incubation, agarose gel read-out. Particulars: '25 to 150 μM or greater' for the derivatives. Here is the method: When carried out using hot-start conditions, the polymerase (e.g., Taq polymerase) was inhibited at lower temperatures, but activated at the start of amplification when temperatures increased to denature the DNA (e.g., 95° C.); the amplification produced a single product approximately 1.5 kb in size. When carried out using non-hot-start conditions, the DNA polymerase was not inhibited at lower temperatures, and amplification produced a product approximately 400 bp in size (among other secondary products), and the 1.5 kb fragment was transiently present. To test the ability of the thermally-labile small molecule polymerase to inhibit DNA polymerase (e.g., Taq DNA polymerase) activity, the amplification reactions were incubated at 22° C. for 1.5 to 6 hours or longer prior to performing PCR amplification.
The amplifications were set up at room temperature. The thermally-labile small molecule polymerase inhibitor(s) were titrated (concentrations will depend on exact compound, enzyme being inhibited, detergent concentration, and other buffer conditions) into reactions. For these experiments, the following composition were used: 1× GoTaq® Colorless Flexi Buffer, 2.5 mM MgCl2, 200 μM each dNTP, 0.4 μM each primer, 0.025 U/μl GoTaq® DNA Polymerase, 500 pg plasmid DNA and nuclease-free water to bring it to a 25 μl reaction. […]

For assay [3], the target named is T1, Taq. Kind of assay: Hot-start PCR of Human Dystrophin Alu 7-2 gene (320 bp amplicon) with human genomic DNA as template. The following applies: HD Alu 7-2 target; for secondary products (seen as a smear): at certain concentrations; for 320 bp yield: human genomic DNA, compared with no hot-start. Here is the method: FIG. 12 includes a representative image of an agarose gel used to evaluate the Human Dystrophin Alu-72 gene amplification products of various hot-start PCR reactions performed with and without two different polymerase inhibitors (compound #7124 and compound #7261) and using human genomic DNA as a template. The target amplicon is 320 bp, and without hot-start, there is less yield. […] Reaction components are provided in Table 2 below; the following cycling methods were used: [(22° C. for 90 min, 94° C. for 2 min) 1 cycle, (94° C. for 50 sec, 59° C. for 50 sec, 68° C. for 2 min) 42 cycles, 4° C. soak].

The target of a further assay is Taq DNA Polymerase (Thermus aquaticus, UniProt P19821). The assay can be described thus: Activated calf thymus DNA polymerase activity assay (radioactive incorporation) at 22° C. Here is the method:
Activity assays were used to test the concentrations of small molecule polymerase inhibitors in specific reaction conditions to determine inhibition efficacy. Corresponding IC50 values were also determined for the compounds. Activity assays were also used to test the temperatures or temperature ranges at which the reactions are inhibited by the compounds.
Exemplary activity assays can be carried out according to a variety of methods. For example, a DNA polymerase activity assay monitoring radioactive incorporation where “activated” calf thymus or salmon sperm DNA is used as the DNA substrate. Along with the DNA substrate, the reactions minimally contain a buffer (e.g., GoTaq® buffer), magnesium, dNTPs, and polymerase. Reactions were stopped, and DNA was precipitated by ice-cold TCA (tricholoracetic acid), incubated on ice for at least 10 minutes, filtered using GF/C filters, and radioactive incorporation in precipitable DNA (on filter) measured by scintillation counting. (See, e.g., Apospian & Kornberg. (1962) JBC 237:519-525.; Chien et al. (1976) J. Bact. 127:1550-1557.)
FIG. 7 includes a representation of a polymerase activity assay carried out at 22° C., where an inhibitor (i.e. compound #7124) is titrated. FIG. 7 is an example of an activity assay where IC50 can be determined. […] Activated calf thymus DNA activity assay was used in these experiments. […]

T1 sequence (P19821 whole entry): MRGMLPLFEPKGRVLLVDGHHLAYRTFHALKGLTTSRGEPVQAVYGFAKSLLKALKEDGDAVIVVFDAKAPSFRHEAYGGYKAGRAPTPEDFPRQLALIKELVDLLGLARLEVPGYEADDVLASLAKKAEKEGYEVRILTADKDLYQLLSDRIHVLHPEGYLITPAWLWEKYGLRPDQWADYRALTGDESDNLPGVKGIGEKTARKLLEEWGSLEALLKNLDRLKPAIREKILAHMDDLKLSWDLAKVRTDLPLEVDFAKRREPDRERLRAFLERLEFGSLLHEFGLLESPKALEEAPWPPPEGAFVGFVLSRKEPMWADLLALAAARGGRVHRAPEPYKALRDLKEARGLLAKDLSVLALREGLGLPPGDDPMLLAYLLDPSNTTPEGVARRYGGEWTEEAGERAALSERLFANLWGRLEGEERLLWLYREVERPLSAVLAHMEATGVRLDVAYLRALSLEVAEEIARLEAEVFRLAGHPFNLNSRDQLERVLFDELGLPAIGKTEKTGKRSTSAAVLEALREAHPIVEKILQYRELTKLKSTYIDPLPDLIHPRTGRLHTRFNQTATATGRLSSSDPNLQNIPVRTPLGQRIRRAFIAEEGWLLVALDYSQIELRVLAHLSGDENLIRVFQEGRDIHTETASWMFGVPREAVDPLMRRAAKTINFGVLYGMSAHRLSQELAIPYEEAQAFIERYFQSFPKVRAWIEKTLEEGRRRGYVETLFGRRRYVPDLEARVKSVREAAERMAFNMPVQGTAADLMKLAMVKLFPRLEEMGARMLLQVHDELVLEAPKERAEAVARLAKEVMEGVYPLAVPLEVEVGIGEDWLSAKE
Taq DNA Polymerase, sequence (P19821 whole entry): as above
T2 sequence (P19821 whole entry): as above

In the case of `CCCCCCCCCCCCC(OC(=O)NCCCS(=O)(=O)[O-])c1ccc(Cl)o1.[Na+]` (centres unmarked) [compound #7261, Sodium 3-((((1-(5-chlorofuran-2-yl)tridecyl)oxy)carbonyl)amino)propane-1-sulfonate], on Taq [1], the primer dimer amounts entry is listed as “remained” and the 500 bp yield result is reported as “increased”. Moreover, the “potency of DNA polymerase inhibitors (summary comparison of #7261 with derivatives)” value in assay [2] is “about 75 μM”. On Taq [3], the “secondary products (seen as a smear)” value is recorded as “dramatically decreased” and the 320 bp yield result is “increased”.
For `CCCCCCCCCCCCC(OC(=O)NCCCS(=O)(=O)[O-])c1ccc(OC)cc1.[Na+]` (centres unmarked) [compound #7124, Sodium 3-((((1-(4-methoxyphenyl)tridecyl)oxy)carbonyl)amino)propane-1-sulfonate], at Taq [1], the primer dimer amounts result is recorded as “remained” and the 500 bp yield entry is listed as “increased”. The “inhibition ultimately reached as concentration increased” value on Taq DNA Polymerase (high inhibitor concentration) turned out to be 100%. For the same compound, the IC50 on Taq DNA Polymerase (titration of inhibitor, calculated from graph (FIG. 7)) is around 150 µM. Besides, at Taq [3], the “secondary products (seen as a smear)” value is reported as “dramatically decreased” and the 320 bp yield entry was “increased”.
